Results: patent US10870647B2, “Imidazopyridine derivative, method for preparing same, and pharmaceutical composition containing same as active ingredient for preventing or treating cancer” (DAEGU-GYEONGBUK MEDICAL INNOVATION FOUNDATION, priority 2016, dated 2020)

Experiments:
Test in all cases: Kinase selectivity, scanMAX Kinase assay panel (DiscoverX), % control at 1 uM
Format in all cases: binding
[1] = biological target: T1, scanMAX Kinase assay panel (Homo sapiens, UniProt O75460); details: ERN1; 1 uM; read-out: Percent Control (%)
T1 construct: purchased DiscoverX
In short: (§1)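 Binding across the scanMAX kinase panel was tested at 1 uM compound. % control = (compound − positive control)/(negative control − positive control) × 100; below 35 counted as active.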

[2] = biological target: T2, scanMAX Kinase assay panel (Homo sapiens, UniProt P32298); details: GRK4; 1 uM; read-out: Percent Control (%)
T2 construct: purchased DiscoverX
In short: as §1

[3] = biological target: T3, scanMAX Kinase assay panel (Homo sapiens, UniProt P35626); details: GRK3; 1 uM; read-out: Percent Control (%)
T3 construct: purchased DiscoverX
T3 sequence (P35626 1-688): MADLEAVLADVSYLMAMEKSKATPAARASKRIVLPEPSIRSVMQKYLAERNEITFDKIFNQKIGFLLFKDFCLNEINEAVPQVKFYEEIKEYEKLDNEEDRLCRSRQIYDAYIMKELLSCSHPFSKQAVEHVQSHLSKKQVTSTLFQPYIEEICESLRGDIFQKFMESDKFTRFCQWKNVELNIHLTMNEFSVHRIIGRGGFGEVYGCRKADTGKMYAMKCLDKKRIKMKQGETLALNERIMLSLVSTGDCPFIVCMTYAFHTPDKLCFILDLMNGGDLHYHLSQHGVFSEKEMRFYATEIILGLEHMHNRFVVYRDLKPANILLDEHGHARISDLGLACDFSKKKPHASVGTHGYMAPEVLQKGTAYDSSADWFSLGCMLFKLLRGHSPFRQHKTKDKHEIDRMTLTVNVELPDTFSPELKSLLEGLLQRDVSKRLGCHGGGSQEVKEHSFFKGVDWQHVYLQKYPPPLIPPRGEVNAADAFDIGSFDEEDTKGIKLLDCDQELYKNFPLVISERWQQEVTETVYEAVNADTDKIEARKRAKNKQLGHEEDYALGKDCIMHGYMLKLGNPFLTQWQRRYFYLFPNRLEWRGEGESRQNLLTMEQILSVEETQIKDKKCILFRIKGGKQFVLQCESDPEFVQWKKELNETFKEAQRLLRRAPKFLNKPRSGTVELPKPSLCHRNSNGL
In short: as §1

[4] = biological target: T4, scanMAX Kinase assay panel (Homo sapiens, UniProt P36888, D835Y); details: FLT3 (D835Y); 1 uM; read-out: Percent Control (%)
T4 construct: purchased DiscoverX
T4 sequence (P36888 27-993 D835Y): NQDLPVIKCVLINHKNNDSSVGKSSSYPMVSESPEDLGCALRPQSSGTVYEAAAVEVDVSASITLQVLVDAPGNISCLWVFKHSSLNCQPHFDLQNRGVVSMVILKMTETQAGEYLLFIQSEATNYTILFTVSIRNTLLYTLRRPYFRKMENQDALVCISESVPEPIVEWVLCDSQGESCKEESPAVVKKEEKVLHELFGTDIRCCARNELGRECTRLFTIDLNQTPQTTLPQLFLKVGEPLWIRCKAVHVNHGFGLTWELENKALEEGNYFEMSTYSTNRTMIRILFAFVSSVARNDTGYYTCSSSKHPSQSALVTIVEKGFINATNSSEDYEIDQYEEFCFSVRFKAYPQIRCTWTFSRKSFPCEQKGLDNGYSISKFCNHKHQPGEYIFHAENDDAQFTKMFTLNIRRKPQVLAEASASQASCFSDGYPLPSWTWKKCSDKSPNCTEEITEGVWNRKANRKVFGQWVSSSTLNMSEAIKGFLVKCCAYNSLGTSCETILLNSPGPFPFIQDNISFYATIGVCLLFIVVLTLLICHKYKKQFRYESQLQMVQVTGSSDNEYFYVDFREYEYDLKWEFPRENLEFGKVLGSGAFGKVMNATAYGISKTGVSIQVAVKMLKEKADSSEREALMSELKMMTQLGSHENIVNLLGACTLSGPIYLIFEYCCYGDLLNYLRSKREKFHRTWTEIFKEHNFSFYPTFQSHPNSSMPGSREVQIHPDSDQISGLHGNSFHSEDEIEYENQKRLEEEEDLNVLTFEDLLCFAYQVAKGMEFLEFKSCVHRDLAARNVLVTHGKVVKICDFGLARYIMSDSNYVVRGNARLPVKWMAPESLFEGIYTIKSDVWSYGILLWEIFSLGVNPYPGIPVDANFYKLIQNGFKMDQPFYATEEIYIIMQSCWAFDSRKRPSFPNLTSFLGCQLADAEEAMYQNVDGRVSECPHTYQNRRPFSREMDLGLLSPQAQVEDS
In short: as §1

[5] = biological target: T5, scanMAX Kinase assay panel (Homo sapiens, UniProt P42336, E545K); details: PIK3CA (E545K); 1 uM; read-out: Percent Control (%)
T5 construct: purchased DiscoverX
In short: as §1

[6] = biological target: T6, scanMAX Kinase assay panel (Homo sapiens, UniProt Q07912); details: TNK2; 1 uM; read-out: Percent Control (%)
T6 construct: purchased DiscoverX
In short: as §1

[7] = biological target: T7, scanMAX Kinase assay panel (Homo sapiens, UniProt Q8TBX8); details: PIP5K2C; 1 uM; read-out: Percent Control (%)
T7 construct: purchased DiscoverX
T7 sequence (Q8TBX8 1-421): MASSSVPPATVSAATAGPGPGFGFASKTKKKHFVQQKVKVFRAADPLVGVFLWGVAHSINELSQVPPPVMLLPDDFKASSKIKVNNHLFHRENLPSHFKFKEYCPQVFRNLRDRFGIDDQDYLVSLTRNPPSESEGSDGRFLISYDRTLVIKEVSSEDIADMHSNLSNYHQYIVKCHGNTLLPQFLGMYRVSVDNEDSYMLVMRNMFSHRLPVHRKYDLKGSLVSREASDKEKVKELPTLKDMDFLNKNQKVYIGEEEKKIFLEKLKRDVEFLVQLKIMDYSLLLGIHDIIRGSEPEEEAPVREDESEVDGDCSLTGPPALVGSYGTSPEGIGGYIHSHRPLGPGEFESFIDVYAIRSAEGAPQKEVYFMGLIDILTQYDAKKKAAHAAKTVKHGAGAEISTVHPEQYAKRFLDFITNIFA
In short: as §1

T6 sequence (Q07912 whole entry): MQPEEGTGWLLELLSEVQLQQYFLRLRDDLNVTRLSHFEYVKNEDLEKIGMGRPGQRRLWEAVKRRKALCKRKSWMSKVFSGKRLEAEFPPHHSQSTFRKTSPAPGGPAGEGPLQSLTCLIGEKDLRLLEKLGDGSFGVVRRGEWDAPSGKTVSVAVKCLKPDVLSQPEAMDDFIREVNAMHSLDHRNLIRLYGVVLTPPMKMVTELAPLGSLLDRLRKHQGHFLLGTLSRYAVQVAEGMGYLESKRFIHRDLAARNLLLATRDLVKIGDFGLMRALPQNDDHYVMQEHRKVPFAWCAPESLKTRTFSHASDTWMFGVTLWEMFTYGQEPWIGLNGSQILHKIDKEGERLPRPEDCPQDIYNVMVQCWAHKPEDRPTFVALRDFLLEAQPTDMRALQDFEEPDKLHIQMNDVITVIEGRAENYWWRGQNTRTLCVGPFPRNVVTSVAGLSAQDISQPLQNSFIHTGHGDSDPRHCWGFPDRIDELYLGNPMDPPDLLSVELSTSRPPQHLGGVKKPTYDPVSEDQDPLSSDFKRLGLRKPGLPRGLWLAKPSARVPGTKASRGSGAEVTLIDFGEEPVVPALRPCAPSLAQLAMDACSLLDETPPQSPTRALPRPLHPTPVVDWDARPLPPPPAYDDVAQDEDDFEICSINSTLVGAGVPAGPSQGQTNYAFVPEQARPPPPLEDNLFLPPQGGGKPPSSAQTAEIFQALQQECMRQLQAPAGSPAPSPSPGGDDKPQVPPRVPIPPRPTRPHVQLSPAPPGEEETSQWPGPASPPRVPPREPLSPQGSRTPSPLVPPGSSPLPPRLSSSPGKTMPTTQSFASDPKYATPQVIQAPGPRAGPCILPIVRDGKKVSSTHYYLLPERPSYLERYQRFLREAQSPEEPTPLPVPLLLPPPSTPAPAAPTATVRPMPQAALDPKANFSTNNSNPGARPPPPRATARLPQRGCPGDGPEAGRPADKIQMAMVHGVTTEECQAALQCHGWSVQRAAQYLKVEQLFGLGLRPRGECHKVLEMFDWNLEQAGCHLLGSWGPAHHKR
T1 sequence (O75460 19-977): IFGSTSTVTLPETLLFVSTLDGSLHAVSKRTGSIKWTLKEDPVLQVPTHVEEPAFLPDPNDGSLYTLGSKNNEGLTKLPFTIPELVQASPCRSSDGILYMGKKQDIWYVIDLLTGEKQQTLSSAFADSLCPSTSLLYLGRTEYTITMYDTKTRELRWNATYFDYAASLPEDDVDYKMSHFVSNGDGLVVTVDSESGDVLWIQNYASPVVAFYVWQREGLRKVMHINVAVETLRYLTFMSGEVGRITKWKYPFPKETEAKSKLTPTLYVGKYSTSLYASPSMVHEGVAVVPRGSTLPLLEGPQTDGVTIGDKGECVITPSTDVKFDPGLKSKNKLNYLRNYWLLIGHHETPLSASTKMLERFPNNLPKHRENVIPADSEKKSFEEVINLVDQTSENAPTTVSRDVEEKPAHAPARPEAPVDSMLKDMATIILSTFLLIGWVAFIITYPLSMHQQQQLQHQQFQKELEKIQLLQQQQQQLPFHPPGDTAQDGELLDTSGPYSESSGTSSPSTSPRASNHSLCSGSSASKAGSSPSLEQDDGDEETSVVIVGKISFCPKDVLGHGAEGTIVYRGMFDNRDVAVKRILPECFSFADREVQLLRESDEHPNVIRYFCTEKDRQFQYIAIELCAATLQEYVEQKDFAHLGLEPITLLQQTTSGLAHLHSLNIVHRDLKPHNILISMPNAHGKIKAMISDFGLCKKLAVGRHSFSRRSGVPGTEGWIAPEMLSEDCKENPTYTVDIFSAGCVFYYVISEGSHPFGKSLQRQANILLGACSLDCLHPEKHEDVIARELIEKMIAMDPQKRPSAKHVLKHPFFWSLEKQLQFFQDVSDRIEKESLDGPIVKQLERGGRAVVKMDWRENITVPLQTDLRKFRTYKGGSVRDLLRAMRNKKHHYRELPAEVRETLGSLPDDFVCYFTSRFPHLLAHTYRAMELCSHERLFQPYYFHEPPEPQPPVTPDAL
T2 sequence (P32298 whole entry): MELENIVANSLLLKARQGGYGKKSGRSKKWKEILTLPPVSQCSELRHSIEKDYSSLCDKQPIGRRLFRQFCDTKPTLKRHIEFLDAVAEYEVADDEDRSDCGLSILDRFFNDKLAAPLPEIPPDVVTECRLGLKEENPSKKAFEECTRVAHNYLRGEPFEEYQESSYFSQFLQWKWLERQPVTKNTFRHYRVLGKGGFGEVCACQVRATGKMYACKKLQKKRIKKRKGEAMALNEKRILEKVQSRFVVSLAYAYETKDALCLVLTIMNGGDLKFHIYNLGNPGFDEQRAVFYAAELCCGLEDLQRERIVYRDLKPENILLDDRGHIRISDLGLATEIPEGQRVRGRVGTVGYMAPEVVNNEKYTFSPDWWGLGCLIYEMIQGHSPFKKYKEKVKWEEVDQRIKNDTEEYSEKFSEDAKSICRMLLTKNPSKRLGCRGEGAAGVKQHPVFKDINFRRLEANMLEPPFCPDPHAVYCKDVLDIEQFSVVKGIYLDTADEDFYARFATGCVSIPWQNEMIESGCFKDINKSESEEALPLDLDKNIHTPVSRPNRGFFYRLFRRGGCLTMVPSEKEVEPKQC
T5 sequence (P42336 whole entry E545K): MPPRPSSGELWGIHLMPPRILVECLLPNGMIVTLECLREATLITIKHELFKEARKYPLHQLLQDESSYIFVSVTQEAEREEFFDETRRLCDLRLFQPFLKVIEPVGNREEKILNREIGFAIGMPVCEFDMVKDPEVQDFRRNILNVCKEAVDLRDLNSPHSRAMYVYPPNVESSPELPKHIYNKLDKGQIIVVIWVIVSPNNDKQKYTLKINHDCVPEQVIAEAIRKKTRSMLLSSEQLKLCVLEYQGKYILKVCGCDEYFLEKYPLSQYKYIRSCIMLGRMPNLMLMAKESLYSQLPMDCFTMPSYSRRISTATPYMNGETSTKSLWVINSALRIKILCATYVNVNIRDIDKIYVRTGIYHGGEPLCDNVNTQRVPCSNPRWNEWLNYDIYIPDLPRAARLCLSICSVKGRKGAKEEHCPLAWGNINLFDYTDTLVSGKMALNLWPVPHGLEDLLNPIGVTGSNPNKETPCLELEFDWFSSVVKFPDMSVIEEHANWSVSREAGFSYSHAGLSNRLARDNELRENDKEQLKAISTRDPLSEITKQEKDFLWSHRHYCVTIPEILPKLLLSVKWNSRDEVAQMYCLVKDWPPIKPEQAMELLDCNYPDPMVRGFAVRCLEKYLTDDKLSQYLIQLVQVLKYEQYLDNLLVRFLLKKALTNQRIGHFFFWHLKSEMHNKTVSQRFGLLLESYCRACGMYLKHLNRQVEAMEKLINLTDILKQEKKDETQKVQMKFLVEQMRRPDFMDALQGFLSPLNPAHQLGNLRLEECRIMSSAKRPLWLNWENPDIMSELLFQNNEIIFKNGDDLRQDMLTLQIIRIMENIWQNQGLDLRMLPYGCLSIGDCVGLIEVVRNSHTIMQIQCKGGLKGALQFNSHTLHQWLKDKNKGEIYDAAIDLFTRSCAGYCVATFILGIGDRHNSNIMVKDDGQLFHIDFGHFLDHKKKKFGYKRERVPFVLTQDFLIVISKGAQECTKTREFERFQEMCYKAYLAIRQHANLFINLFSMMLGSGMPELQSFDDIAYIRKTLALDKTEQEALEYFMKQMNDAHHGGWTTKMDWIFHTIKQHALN

In the case of Cc1ccc(C(=O)Nc2ccc(CN3CCN(C)CC3)c(C(F)(F)F)c2)cc1C#Cc1cnc2c(Nc3cnn(C)c3)cccn12 [Example 1, 4-methyl-3-((8-((1-methyl-1H-pyrazol-4-yl)amino)imidazo[1,2-a]pyridin-3-yl)ethynyl)-N-(4-((4-methylpiperazin-1-yl)methyl)-3-(trifluoromethyl)phenyl)benzamide], the remaining binding at 1 µM [1] is reported as 62%, the remaining binding at 1 µM [2] is reported as 100% and the remaining binding at 1 µM [3] is reported as 82%. It also gave a remaining binding at 1 µM [4] of 5%, a remaining binding at 1 µM [5] of 81% and a remaining binding at 1 µM [6] of 2%. It also gave a remaining binding at 1 µM [7] of 97%.

For Cc1cn(-c2cc(NC(=O)c3ccc(C)c(C#Cc4cnc5c(Nc6cnn(C)c6)cccn45)c3)cc(C(F)(F)F)c2)cn1 [Example 12, 4-methyl-N-(3-(4-methyl-1H-imidazol-1-yl)-5-(trifluoromethyl)phenyl)-3-((8-((1-methyl-1H-pyrazol-4-yl)amino)imidazo[1,2-a]pyridin-3-yl)ethynyl)benzamide], the remaining binding at 1 µM [1] was 100%, the remaining binding at 1 µM [2] was 100% and the remaining binding at 1 µM [3] was 100%. The remaining binding at 1 µM [4] was 14%, the remaining binding at 1 µM [5] was 77% and the remaining binding at 1 µM [6] was 28%. The remaining binding at 1 µM [7] was 73%.

Cc1ccc(NC(=O)C2(C(=O)Nc3ccc(F)cc3)CC2)cc1C#Cc1cnc2c(Nc3cnn(C(C)C)c3)cccn12 [Example 78] gave a remaining binding at 1 µM [1] of 97%, a remaining binding at 1 µM [2] of 100% and a remaining binding at 1 µM [3] of 97%. The remaining binding at 1 µM [4] was 79%, the remaining binding at 1 µM [5] was 92% and the remaining binding at 1 µM [6] was 100%. It also gave a remaining binding at 1 µM [7] of 95%.
